The record followed here is BindingDB's records for doi:10.7270/Q2TX3CTT (Broad Institute, 2010).

Structures are written as SMILES. Counter-ions that a name gives are not always drawn.

Chain of Glycogen synthase kinase-3 beta (P49841 whole entry): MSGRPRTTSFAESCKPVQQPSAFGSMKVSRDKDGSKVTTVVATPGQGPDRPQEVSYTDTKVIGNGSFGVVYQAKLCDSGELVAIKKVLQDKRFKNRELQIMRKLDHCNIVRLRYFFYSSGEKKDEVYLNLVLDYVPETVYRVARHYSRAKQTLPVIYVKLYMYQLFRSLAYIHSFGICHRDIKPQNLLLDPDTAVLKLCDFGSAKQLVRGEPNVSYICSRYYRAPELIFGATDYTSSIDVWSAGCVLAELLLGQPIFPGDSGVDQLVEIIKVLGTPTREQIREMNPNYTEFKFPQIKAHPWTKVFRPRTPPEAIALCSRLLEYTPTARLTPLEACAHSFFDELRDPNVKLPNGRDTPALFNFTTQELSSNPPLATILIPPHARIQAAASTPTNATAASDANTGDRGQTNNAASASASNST

This assay has as its target Glycogen synthase kinase-3 beta (Homo sapiens, UniProt P49841). The assay is described as follows: GSK3beta kinase inhibitor potency, dose response, biochemical, luminescence, cell-free homogeneous, retest (AID 434954).
As a reminder, the EC50 is the concentration giving half of the maximal effect. A high value points to a need for much substance. `COc1ccc2nc(C)cc(N3CCOCC3)c2c1` [4-(6-methoxy-2-methyl-4-quinolinyl)morpholine] had an EC50 of over 300 µM. In the case of `Cc1csc(SCC(=O)Nc2ccc(Cl)cn2)n1` [N-(5-chloropyridin-2-yl)-2-[(4-methyl-1,3-thiazol-2-yl)sulfanyl]acetamide] it was 19.4 µM; in that of `CCCCCOc1ccc(C=NNC(=O)c2nnn(-c3nonc3N)c2CN2CCCCCC2)cc1` [1-(4-azanyl-1,2,5-oxadiazol-3-yl)-5-(azepan-1-ylmethyl)-N-[(4-pentoxyphenyl)methylideneamino]-1,2,3-triazole-4-carboxamide], 9.79 µM. As to `CCCN(C(=O)CCNC(=O)Cn1cnc2ccccc2c1=O)c1cccc(Cl)c1` [N-(3-chlorophenyl)-3-[[2-(4-oxoquinazolin-3-yl)acetyl]amino]-N-propylpropanamide], the EC50 was over 300 µM. Then `O=C(COc1ccc(S(=O)(=O)N2CCCC2)cc1Cl)Nc1ccc2c(c1)OCO2` [MLS000052177], with over 300 µM. Then `O=Cc1ccc(N2CCCC2)c([N+](=O)[O-])c1` [SMR000383989], with over 300 µM. In the case of `CCCCc1c(O)nc(SCC(=O)c2ccccc2)n(-c2ccccc2OC)c1=O` [5-Butyl-6-hydroxy-3-(2-methoxy-phenyl)-2-(2-oxo-2-phenyl-ethylsulfanyl)-3H-pyrimidin-4-one] it was over 300 µM; in that of `COc1ccc(C(=O)Nc2ccc([N+](=O)[O-])cn2)cc1OC` [3,4-dimethoxy-N-(5-nitropyridin-2-yl)benzamide], over 300 µM; in that of `COc1ccc2c(c1)-c1c(sn(-c3ccccc3)c1=S)C(C)(C)N2`, over 300 µM.

Consider `COc1ccc(-c2nnc3ccc(SCC(N)=O)nn23)cc1OC` [2-[[3-(3,4-dimethoxyphenyl)-[1,2,4]triazolo[4,3-b]pyridazin-6-yl]sulfanyl]ethanamide], for which the EC50 was over 300 µM.

As for `CSc1nc(NCC(C)O)c2c3c(sc2n1)CN(C)CC3` (configuration not stated) [1-[(7-methyl-2-methylsulfanyl-6,8-dihydro-5H-pyrido[4,5]thieno[1,2-c]pyrimidin-4-yl)amino]propan-2-ol], a half-maximal effect (EC50) was put at 18.3 µM. In the case of `c1ccc(-c2nc(NCCCn3ccnc3)c3oc4ccccc4c3n2)cc1` [N-[3-(1-imidazolyl)propyl]-2-phenyl-4-benzofuro[3,2-d]pyrimidinamine;hydrochloride] it was 34.7 µM; in that of `O=C1N=C(NCc2ccccc2)SC1=Cc1ccccc1` [MLS000589841], over 300 µM. In the case of `N#Cc1c(-c2ccccc2)nc(-c2cccnc2)[nH]c1=O` [MLS001165441] it was over 300 µM; in that of `COc1ccc(-c2nn(-c3ccccc3)cc2CN=Nc2ccccn2)cc1OC` [MLS000388893], 66.1 µM. In the case of `CC(=O)N1CCc2c(sc(NC(=O)CN3C(=O)CCC3=O)c2C(N)=O)C1` [6-acetyl-2-[[2-(2,5-dioxopyrrolidin-1-yl)acetyl]amino]-5,7-dihydro-4H-thieno[2,3-c]pyridine-3-carboxamide] it was 2.29 µM; in that of `CCN1CCc2c(sc(NC(=O)Cc3ccccc3)c2C(N)=O)C1` [6-ethyl-2-[(1-oxo-2-phenylethyl)amino]-5,7-dihydro-4H-thieno[2,3-c]pyridine-3-carboxamide;hydrochloride], over 300 µM; in that of `COc1cccc(C(=O)Nc2nc(-c3ccncc3)cs2)c1` [3-methoxy-N-(4-pyridin-4-yl-1,3-thiazol-2-yl)benzamide], over 300 µM. The compound `O=C1NC(=O)N(CCc2ccc(F)cc2)C(=O)C1=CNN1CCCCC1` [1-[2-(4-Fluoro-phenyl)-ethyl]-5-[1-(piperidin-1-ylamino)-meth-(Z)-ylidene]-pyrimidine-2,4,6-trione] came in with an EC50 of over 300 µM. In the case of `O=Cc1cn(CCC(=O)O)nc1-c1cccc(Br)c1` [3-[3-(3-bromophenyl)-4-formylpyrazol-1-yl]propanoic acid] it was over 300 µM. In the case of `O=C(COc1ccccc1[N+](=O)[O-])NN=Cc1ccccn1` [(2-Nitro-phenoxy)-acetic acid [1-pyridin-2-yl-meth-(E)-ylidene]-hydrazide] it was over 300 µM. Take `CN(C)Cc1c(O)ccc2c1O/C(=C\C=C\c1ccccc1)C2=O` [7-Dimethylaminomethyl-6-hydroxy-2-[(E)-3-phenyl-prop-2-en-(Z)-ylidene]-benzofuran-3-one]: the EC50 amounted to 31.4 µM. Take `Cc1cc(OCC(O)CNC(C)c2ccccc2)ccc1C(C)C` (configuration not stated) [1-(3-methyl-4-propan-2-ylphenoxy)-3-(1-phenylethylamino)-2-propanol;hydrochloride]: the EC50 is over 300 µM. As for `C=CCNC(=O)/C(=C\c1cccc([N+](=O)[O-])c1)NC(=O)c1ccccc1`, the EC50 is over 300 µM. Consider `CC(C)CNC(=O)c1cccc(NC(=O)c2ccc(NC(=O)c3ccco3)cc2)c1` [MLS000088940], for which the EC50 is over 300 µM. In the case of `Cc1nnc(SCC(=O)Nc2ccc(Cl)cn2)[nH]c1=O` [N-(5-chloro-2-pyridinyl)-2-[(6-methyl-5-oxo-2H-1,2,4-triazin-3-yl)thio]acetamide] it was 36.7 µM; in that of `Cc1ccc2cc3c(NC(=O)C4CCCO4)nn(CC(C)C)c3nc2c1` (configuration not stated) [SMR000148634], over 300 µM; in that of `COc1ccc2c(CC(=O)Nc3ncc(C)s3)coc2c1` [2-(6-methoxy-1-benzofuran-3-yl)-N-(5-methyl-1,3-thiazol-2-yl)ethanamide], over 300 µM. As for `Cc1ccccc1-c1nc(CN2CCC(C(=O)N3CCN(c4ccccn4)CC3)CC2)c(C)o1` [[1-[[5-methyl-2-(2-methylphenyl)-4-oxazolyl]methyl]-4-piperidinyl]-[4-(2-pyridinyl)-1-piperazinyl]methanone], the EC50 was over 300 µM. In the case of `CCn1nc(NC(=O)c2cccs2)c2cc3ccccc3nc21` [MLS000674383], the EC50 was over 300 µM. `CN(C)CCCNc1nc(N)c([N+](=O)[O-])c(NCCO)n1` [2-[[6-amino-2-[3-(dimethylamino)propylamino]-5-nitro-4-pyrimidinyl]amino]ethanol]: the half-maximal effective concentration (EC50) was 60.3 µM. `CC(=O)N1CCc2c(sc(NC(=O)C3CCCCC3)c2C(N)=O)C1` [2-(cyclohexylcarbonylamino)-6-ethanoyl-5,7-dihydro-4H-thieno[2,3-c]pyridine-3-carboxamide] gave an EC50 of over 300 µM. As to `CCOC(=O)C(C)Sc1ccc2nnc(-c3ccc(F)cc3)n2n1` (configuration not stated) [2-[[3-(4-fluorophenyl)-[1,2,4]triazolo[4,3-b]pyridazin-6-yl]thio]propanoic acid ethyl ester], a half-maximal response (EC50) required 19.3 µM. Then `Nc1nc(Nc2cccc(Cl)c2)nc(NCc2ccco2)c1[N+](=O)[O-]` [MLS000333252], with 6.01 µM; and `Cc1c([N+](=O)[O-])c2ccc(O)cc2n1-c1ccccc1` [2-methyl-3-nitro-1-phenylindol-6-ol], with 2.14 µM. Then `COc1ccc(/C=C2\Sc3ccc(C(=O)NCCCN4CCCC4)cc3N(C)C2=O)cc1OC` [(2Z)-2-[(3,4-dimethoxyphenyl)methylidene]-4-methyl-3-oxo-N-(3-pyrrolidin-1-ylpropyl)-1,4-benzothiazine-6-carboxamide], with over 300 µM.

Take `CCN1CCN(CCNC(=O)c2ccc3c(c2)NC(=O)/C(=C\c2ccc(OC)c(OC)c2)S3)CC1` [(2E)-2-[(3,4-dimethoxyphenyl)methylidene]-N-[2-(4-ethylpiperazin-1-yl)ethyl]-3-oxidanylidene-4H-1,4-benzothiazine-6-carboxamide]: the EC50 was 16.3 µM. In other words, the double-digit micromolar range.
